Laboratory results as given in patent publication US20140315797A1, “Novel N-Terminally Modified Insulin Derivatives” (priority 2010, published 2014).
Where two headings read alike, the source gives them in different places. Starred links: 1 amine or outer side, 2 acyl side, 3 side chain; linkers in the order of their positions; H or OH if unused. Positions of bridges follow the written chain, without caps; N, C: chain ends. Groups on a side chain read outwards from the residue. Chains are numbered I, II in the order given. No end group written: not given here. *: point of attachment. Phe(Nα-CONH2) = NC(=O)N[C@@H](Cc1ccccc1)C(=O)*; C20 diacid = O=C(O)CCCCCCCCCCCCCCCCCCC(=O)*; C18 diacid = O=C(O)CCCCCCCCCCCCCCCCC(=O)*; C16 diacid = O=C(O)CCCCCCCCCCCCCCC(=O)*; NMe2Phe = CN(C)[C@@H](Cc1ccccc1)C(=O)*; γGlu = O=C(O)[C@H](CCC(=O)[*:2])N[*:1]; X1 = CCN(CC)[C@@H](Cc1ccccc1)C(=O)*; Hydantoyl = NC(=O)NCC(=O)*; AEEA = NCCOCCOCC(=O)O; Me2Gly = CN(C)CC(=O)*; X2 = CCN(CC)CC(=O)*

Key:
[1] = target: T1, human insulin receptor (IR-A) (Homo sapiens, UniProt P06213); details: relative to affinity of human insulin; […] HSA in binding buffer
Protocol: (§1) The affinity of the acylated insulin analogues of this invention for the human insulin receptor is determined by a SPA assay (Scintillation Proximity Assay) microtiterplate antibody capture assay. SPA-PVT antibody-binding beads, anti-mouse reagent (Amersham Biosciences, Cat No. PRNQ0017) are mixed with 25 ml of binding buffer (100 mM HEPES pH 7.8; 100 mM sodium chloride, 10 mM MgSO4, 0.025% Tween-20). Reagent mix for a single Packard Optiplate (Packard No. 6005190) is composed of 2.4 μl of a 1:5000 diluted purified recombinant human insulin receptor (either with or without exon 11), an amount of a stock solution of A14Tyr[^125I]-human insulin corresponding to 5000 cpm per 100 μl of reagent mix, 12 μl of a 1:1000 dilution of F12 antibody, 3 ml of SPA-beads and binding buffer to a total of 12 ml. A total of 100 μl reagent mix is then added to each well in the Packard Optiplate and a dilution series of the insulin derivative is made in the Optiplate from appropriate samples. The samples are then incubated for 16 hours while gently shaken. The phases are the then separated by centrifugation for 1 min and the plates counted in a Topcounter. The binding data were fitted using the nonlinear regression algorithm in the GraphPad Prism 2.01 (GraphPad Software, San Diego, Calif.) and affinities are expressed relative (in percentage (%)) to the affinity of human insulin.
A related assay is also used wherein the binding buffer also contains 1.5% HSA in order to mimic physiological conditions

[2] = target: T1, human insulin receptor (IR-A); assay: Insulin receptor affinity, SPA antibody capture assay, 0% HSA; format: binding; details: relative to affinity of human insulin
Protocol: as §1

[3] = system: primary rat adipocytes; assay: Lipogenesis in rat adipocytes; format: cell-based; details: relative potency vs human insulin, unit %
Protocol: As a measure of in vitro potency of the insulins of the invention, lipogenesis can be used.
Primary rat adipocytes are isolated from the epididymale fat pads and incubated with 3H-glucose in buffer containing e.g. 0.1% fat free HSA and either standard (human insulin, HI) or insulin of the invention. The labelled glucose is converted into extractable lipids in a dose dependent way, resulting in full dose response curves.

[4] = Chemical stability of insulin analogues formulated in lipid formulations (UPLC purity, SEC HMWP); format: physicochemical; details: lipid formulation, 25° C.
Protocol: Chemical stability of insulin analogues formulated in lipid formulations was assessed according to the protocol described here.
Composition of the formulation: […]
Insulin to be tested (75 μM)
The insulin to be tested (lyophilised from pH 7.5) is dissolved in propylenglycol in the dark for 16 hours. Diglycerol caprylate is added ad the mixture is stirred. Tween 20 is added and the mixture is stirred for 5 minutes. The mixture is gently agitated until it is homogeneous.
Extraction-mix: 1-butanol+0.1% (w/w) Tween80, 0.1M Na2HPO4/NaH2PO4 pH 7.0 • 1. The formulations are allowed to reach room temperature. • 2. To each Eppendorf tube 20 μl of the formulations are added. • 3. Add 490 μl 1-butanol followed by addition of 990 μl of the phosphate buffer. Vortex and incubate at RT for 30 min. • 4. Vortex again and centrifuge at RT at 14000 rpm for 20 min. Analyse the bottom aqueous phase for purity and HMWP formation.
Alternatively another extraction method can be used: • 1. The formulations are allowed to reach room temperature. • 2. To each Eppendorf tube 50 μl of the formulations are added. • 3. Add 950 μl of extraction buffer. Vortex well. Immediately after, load 800 μl (2×400 μl) for purification on the spin column. See spin protocol below. Ion Exchange on Q Spin Columns from Sartorius
(In the following all spin steps are for 5 min at 2000×g.) • 1. Apply 400 μl equilibration buffer to each spin column, and spin. Discard the flow-through. • 2. Apply 2×400 μl of each extracted sample. Spin the column between each application. Discard the flow-through. • 3. Apply 400 μl washing buffer to wash each spin column, and spin. Discard the wash. • 4. Apply 400 μl elution buffer to each spin column, and spin. Analyse the elution for purity and HMWP formation
Column: Waters BEH Shield RP18 UPLC column (2.1×100 mm, 1.7 μm)
Buffer A: 0.09M di-ammonium hydrogen phosphate pH 3.0, 10% (v/v) acetonitrile
Buffer B: 90% acetonitrile.
Column: Waters Insulin HMWP SEC column
Buffer: 500 mM NaCl, 10 mM NaH2PO4, 5 mM H3PO4, 50% (v/v) 2-propanol

[5] = system: duodenum lumen enzymes; assay: Degradation of insulin analogs using duodenum lumen enzymes; details: degradation half time divided by that of reference insulin; rat duodenum enzymes, pH 7.4, 37° C.
Protocol: (§2) Degradation of insulin analogs using duodenum lumen enzymes (prepared by filtration of duodenum lumen content) from SPD rats. The assay is performed by a robot in a 96 well plate (2 ml) with 16 wells available for insulin analogs and standards. Insulin analogs ˜15 μM are incubated with duodenum enzymes in 100 mM Hepes, pH=7.4 at 37° C., samples are taken after 1, 15, 30, 60, 120 and 240 min and reaction quenched by addition of TFA. Intact insulin analogs at each point are determined by RP-HPLC. Degradation half time is determined by exponential fitting of the data and normalized to half time determined for the reference insulins, A14E, B25H, desB30 human insulin or human insulin in each assay. The amount of enzymes added for the degradation is such that the half time for degradation of the reference insulin is between 60 min and 180 min.

[6] = system: duodenum lumen enzymes; details: pH 7.4
Protocol: as §2

T1 sequence (P06213 28-746 isoform P06213-2 limits assumed): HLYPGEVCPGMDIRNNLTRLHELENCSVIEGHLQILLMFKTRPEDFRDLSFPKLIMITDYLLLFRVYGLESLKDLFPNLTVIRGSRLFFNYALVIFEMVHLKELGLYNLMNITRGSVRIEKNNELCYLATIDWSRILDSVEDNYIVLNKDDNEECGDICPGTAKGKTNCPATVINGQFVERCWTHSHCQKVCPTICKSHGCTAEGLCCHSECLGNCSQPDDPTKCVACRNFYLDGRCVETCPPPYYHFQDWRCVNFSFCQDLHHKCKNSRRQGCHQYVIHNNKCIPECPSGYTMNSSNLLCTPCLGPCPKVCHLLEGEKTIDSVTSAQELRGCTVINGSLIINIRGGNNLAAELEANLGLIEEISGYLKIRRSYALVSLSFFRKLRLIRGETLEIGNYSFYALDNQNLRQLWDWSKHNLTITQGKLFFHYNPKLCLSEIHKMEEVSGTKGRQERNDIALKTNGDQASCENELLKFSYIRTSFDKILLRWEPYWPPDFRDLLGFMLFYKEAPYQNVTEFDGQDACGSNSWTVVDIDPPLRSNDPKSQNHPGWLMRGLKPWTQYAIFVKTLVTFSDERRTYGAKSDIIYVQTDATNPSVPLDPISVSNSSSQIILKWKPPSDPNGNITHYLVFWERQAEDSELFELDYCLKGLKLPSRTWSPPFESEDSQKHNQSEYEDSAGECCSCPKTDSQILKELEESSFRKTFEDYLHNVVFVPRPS
T1 sequence (P06213 763-1382 partner limits assumed): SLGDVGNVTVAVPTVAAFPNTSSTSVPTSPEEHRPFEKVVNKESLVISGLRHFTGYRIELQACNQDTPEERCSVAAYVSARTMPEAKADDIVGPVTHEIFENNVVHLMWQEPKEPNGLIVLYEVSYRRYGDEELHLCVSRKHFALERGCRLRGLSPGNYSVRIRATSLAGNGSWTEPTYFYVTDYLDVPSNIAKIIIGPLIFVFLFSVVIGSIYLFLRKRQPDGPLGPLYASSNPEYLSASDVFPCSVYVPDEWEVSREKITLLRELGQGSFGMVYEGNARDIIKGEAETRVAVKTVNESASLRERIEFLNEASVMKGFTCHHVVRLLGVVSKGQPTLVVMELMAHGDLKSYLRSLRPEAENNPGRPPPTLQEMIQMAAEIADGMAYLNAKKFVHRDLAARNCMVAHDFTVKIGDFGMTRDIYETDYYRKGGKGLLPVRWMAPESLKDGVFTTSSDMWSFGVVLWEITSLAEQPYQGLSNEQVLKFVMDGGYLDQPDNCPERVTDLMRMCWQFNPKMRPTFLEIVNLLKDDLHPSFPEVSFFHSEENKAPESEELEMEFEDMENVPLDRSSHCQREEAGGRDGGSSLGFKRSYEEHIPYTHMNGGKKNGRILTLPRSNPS

Substance | Relative IR-A affinity (@ […] HSA) (%)e [1] | Relative IR-A affinity (@ 0% HSA) (%) [2] | Duodenum degradation. Relative stability vs. A14E, B25H, desB30 human insulin [5] | Duodenum degradation. Relative stability vs. A14E, B25H, desB30 human insulin [6] | further results
A1(N,N-Dimethyl), A14E, B1(N,N-dimethyl), desB27, B29K(N^εoctadecanedioyl-gGlu-2xOEG), desB30 human insulin [Example 6] | 0.98% | 17.0% | – | – | Lipogenesis in rat adipocytres (@ 0.1% HSA) rel. to human insulin [3]: 0.60%
A1(N^αDiglycolyl), A14E, B1(N^αdiglycolyl), B25H, desB27, B29K(N^εoctadecanedioyl-gGlu-2xOEG), desB30 human insulin [Example 59] | – | – | – | – | HMWP formed (%) 2 weeks [4]: 0.1%; Impurities formed (%) 2 weeks [4]: 2.4%
I: NMe2Phe-VNQHLCGSHLVEALHLVCGERGFHYTPK([γGlu-C16 diacid]) / II: Me2Gly-IVEQCCTSICSLEQLENYCN (disulfide I:6-II:6, I:18-II:19, II:5-II:10) [Example 3, A1(N^α,N^α-Dimethyl), A14E, B1(N^α, N^α-dimethyl), B16H, B25H, B29K(N^εhexadecanedioyl-gGlu), desB30 human insulin] | 0.06% | 0.6% | 3.1 | – | –
I: X1-VNQHLCGSHLVEALYLVCGERGFHYTPK([AEEA-AEEA-γGlu-C18 diacid]) / II: X2-IVEQCCTSICSLEQLENYCN (disulfide I:6-II:6, I:18-II:19, II:5-II:10) [Example 2, A1(N^α,N^α-Diethyl), A14E, B1(N^α, N^α-diethyl), B25H, B29K(N^εOctadecanedioyl-gGlu-2xOEG), desB30 human insulin] | 0.05% | 1.7% | – | 0.8 | HMWP formed (%) 2 weeks [4]: 0.0%; Impurities formed (%) 2 weeks [4]: 1.7%; HMWP formed (%) 4 weeks ([4]; 4 weeks): 0.1%; Impurities formed (%) 4 weeks ([4]; 4 weeks): 3.2%
I: {Phe(Nα-CONH2)}-VNQHLCGSHLVEALHLVCGERGFFYPK([AEEA-AEEA-γGlu-C20 diacid]) / II: Hydantoyl-IVEQCCTSICSLEQLENYCN (disulfide I:6-II:6, I:18-II:19, II:5-II:10) [Example 22] | – | – | 7.7 | – | –
I: {Phe(Nα-CONH2)}-VNQHLCGSHLVEALHLVCGERGFHYTPK([AEEA-AEEA-γGlu-C20 diacid]) / II: Hydantoyl-IVEQCCTSICSLEQLENYCN (disulfide I:6-II:6, I:18-II:19, II:5-II:10) [Example 16, A1(N^α-Carbamoyl), A14E, B1(N^α-Carbamoyl), B16H, B25H, B29K(N^εeicosanedioyl-gGlu-2xOEG), desB30 human insulin] | 0.01% | 0.1% | 0.4 | – | –
I: {Phe(Nα-CONH2)}-VNQHLCGSHLVEALYLVCGERGFFYPK([γGlu-C18 diacid]) / II: Hydantoyl-IVEQCCTSICSLEQLENYCN (disulfide I:6-II:6, I:18-II:19, II:5-II:10) [Example 23, A1(N^αCarbamoyl), A14E, B1(N^αCarbamoyl), desB27, B29K(N^εoctadecanedioyl-gGlu), desB30 human insulin] | 0.04% | 2.7% | – | 6.6 | –
I: {Phe(Nα-CONH2)}-VNQHLCGSHLVEALYLVCGERGFFYPK([γGlu-C20 diacid]) / II: Hydantoyl-IVEQCCTSICSLEQLENYCN (disulfide I:6-II:6, I:18-II:19, II:5-II:10) [Example 21] | 0.07% | 1.3% | – | 6.2 | –
I: {Phe(Nα-CONH2)}-VNQHLCGSHLVEALYLVCGERGFHYPK([AEEA-AEEA-γGlu-C18 diacid]) / II: Hydantoyl-IVEQCCTSICSLEQLENYCN (disulfide I:6-II:6, I:18-II:19, II:5-II:10) [Example 18, A1(N^αCarbamoyl), A14E, B1(N^αCarbamoyl), B25H, desB27, B29K(N^εoctadecandioyl-gGlu-2xOEG), desB30 human insulin] | 0.04% | 0.4% | – | 5.6 | –
I: {Phe(Nα-CONH2)}-VNQHLCGSHLVEALYLVCGERGFHYPK([AEEA-AEEA-γGlu-C20 diacid]) / II: Hydantoyl-IVEQCCTSICSLEQLENYCN (disulfide I:6-II:6, I:18-II:19, II:5-II:10) [Example 28, A1G(N^αcarbamoyl), A14E, B1F(N^αcarbamoyl), B25H, desB27, B29K(N^εeicosanedioyl-gGlu-2xOEG), desB30 human insulin] | 0.25% | 0.7% | 2.1 | – | –
I: {Phe(Nα-CONH2)}-VNQHLCGSHLVEALYLVCGERGFHYTPK([AEEA-AEEA-γGlu-C20 diacid]) / II: Hydantoyl-IVEQCCTSICSLEQLENYCN (disulfide I:6-II:6, I:18-II:19, II:5-II:10) [Example 15, A1(N^αCarbamoyl), A14E, B1(N^αCarbamoyl), B25H, B29K(N^εeicosanedioyl-gGlu-2xOEG), desB30 human insulin] | 0.02% | 0.2% | 0.6 | – | –
I: {Phe(Nα-CONH2)}-VNQHLCGSHLVEALYLVCGERGFHYTPK([γGlu-C16 diacid]) / II: Hydantoyl-IVEQCCTSICSLEQLENYCN (disulfide I:6-II:6, I:18-II:19, II:5-II:10) [Example 13, A1(N^αCarbamoyl), A14E, B1(N^αCarbamoyl), B25H, B29K(N^εhexadecanedioyl-gGlu), desB30 human insulin] | 0.02% | 0.3% | – | 1.5 | –
I: {Phe(Nα-CONH2)}-VNQHLCGSHLVEALYLVCGERGFHYTPK([γGlu-C20 diacid]) / II: Hydantoyl-IVEQCCTSICSLEQLENYCN (disulfide I:6-II:6, I:18-II:19, II:5-II:10) [Example 14, A1(N^αCarbamoyl), A14E, B1(N^αCarbamoyl), B25H, B29K(Feicosanedioyl-gGlu), desB30 human insulin] | 0.00% | 0.2% | – | 0.9 | –
